Laboratory results reported in PMC10610289, “Novel Baicalein-Derived Inhibitors of Plasmodium falciparum” (Pathogens, 2023).
Read-outs that look alike come from different tables or passages of the source. Values belong to the molecule of their own block, whether it stands above or below them.

Assays:
[1] = test system: Dd2 DDD107498 (PfeEF2 Y186N); assay: Cross-resistance panel, Dd2 DDD107498; type: cell-based, Plasmodium falciparum
Experimental: (§1) Parasite lines used in the study were P. falciparum 3D7 (Pf3D7 Chloroquine-sensitive) and Plasmodium falciparum K1 (PfK1 Chloroquine-resistant) sourced from the Malaria Research and Reference Reagent Resource Center (MR4), ATCC, Manassas, VA, USA. FNDR-10132 was tested against a cross-resistance panel at Swiss TPH, Allschwil, Switzerland.

Dd2 (wt) = assay: Cross-resistance panel, Dd2 wt; type: cell-based, Plasmodium falciparum; conditions: strain Dd2 wt
Experimental: as §1

Dd2 DSM265 (Pfdhodh) = assay: Cross-resistance panel, Dd2 DSM265; type: cell-based, Plasmodium falciparum
Experimental: as §1

[2] = test system: Dd2 ELQ300 (PfcytB Ile22Leu); assay: Cross-resistance panel, Dd2 ELQ300; type: cell-based, Plasmodium falciparum
Experimental: as §1

[3] = test system: Plasmodium falciparum 3D7 (chloroquine-sensitive); assay: Antimalarial assay (IC50 determination), asexual blood stage, SYBR green; type: cell-based; conditions: for antimalarial activity (in words): P. falciparum 3D7, highest tested concentration 25 µM; for IC50: P. falciparum 3D7, 72 h exposure, read-out: IC50
Experimental: as §1
As per the modified protocol stated by Trager and Jensen, 1976, Plasmodium falciparum parasite lines (Pf3D7 and PfK1) were cultured. Plasmodium strains were maintained in RPMI-1640 medium at 3–5% hematocrit supplemented with 0.2% w/v glucose, 0.5% w/v AlbuMaxII, 0.2% w/v NaHCO3, and 30 μg/mL gentamycin, and, additionally, 15 μM hypoxanthine was added and incubated at 37 °C with 5% O2, 5% CO2, and 90% N2. After 24 h, the medium was changed. After attaining high parasitemia (6–8% mature stage parasite), the culture was sub-passaged with fresh human RBCs.
All tested compounds were dissolved in a DMSO solvent and a prepared stock solution of 10 mM. The reference drug, Chloroquine diphosphate, was dissolved in CRPMI. Working solutions were made from stock solution after diluting in a CRPMI medium during the experiment. The maximum concentration of DMSO used in this study was <1%. It had no parasiticidal effect.
The P. falciparum (0.8–1% parasitemia and 1% hematocrit) synchronous culture was exposed for 72 h (at 37 °C, 5% O2, 5% CO2, and 90% N2) to the serially diluted compound in 96-well plates. A total of 100 µL of RBCs lytic buffer (5 mM EDTA, 20 mM Tris pH 7.5, 0.08% Triton X-100, and 0.008% Saponin) containing the SYBR green 1-X final concentration was distributed to each well and incubated for one hour at room temp in the dark. The plates were read under a fluorescence reader at an excitation of 485 ± 20 nm and emission of 535 ± 25 nm. The IC50 values were calculated based on the DNA content of the parasite relative to its control. An inhibitory concentration of 50% (IC50) was determined using the MS-EXEL template.

[4] = Microsomal stability assay; type: in vitro ADME, mouse; conditions: at 60 min, 1 µM, ß-NADPH, 37 °C
Experimental: Dipotassium hydrogen phosphate, Potassium dihydrogen phosphate, and formic acid were obtained from Merck, Rahway, NJ, USA. Methanol–acetonitrile was procured from Biosolve Chimie, Dieuze, France. Mouse liver microsomes, 20 mg/mL, were received from a third-party vendor in India. Imipramine HCl (catalog no. I0971) and Carbamazepine (catalog no. O0363) were procured from TCI, Gurugram, India. ß-NADPH (product code-99197) was procured from Sisco Research Laboratories, Mumbai, India.
The in vitro metabolic stability was determined in mouse liver microsomes. To prepare a mouse liver microsomes (MLM) homogenate, 100 µL of microsomes was resuspended in 100 mM phosphate buffer (0.607 g K2HPO4 and 0.212 g KH2PO4 dissolved in 50 mL of de-ionized water), achieving a working concentration of 0.625 mg/mL. Positive control (Imipramine) and test compounds (FNDR-10132, 10136, 10139, and 10999) were spiked individually into the MLM homogenate at a final concentration of 1 µm. To pre-incubate, they were placed in a water bath at 37 °C for 5 min. At least 30 µL was collected in triplicates (0 min samples), and the reaction was quenched using 90 µL of acetonitrile, which contained 500 ng/mL of Carbamazepine as an internal standard. Nicotinamide Adenine Dinucleotide Phosphate (NADPH) in phosphate buffer was added to the remaining MLM at a 1 mM final concentration and further incubated at 37 °C. At the indicated time intervals, 30 µL aliquots were sampled in triplicates, and the reaction was quenched with acetonitrile containing Carbamazepine as the internal standard. The samples were centrifugated for 10 min at 13,000 rpm, and the supernatant was separated for further analysis.
The analytical method for microsomal stability and protein binding assay is as follows: Chromatographic elution was achieved following isocratic flow on an X-Terra MS C18 50 × 4.6 mm, 2.5 µm, Waters, USA, maintained at 40 °C. The mobile phase contained aqueous 0.1% formic acid in water in solvent A and acetonitrile acidified with 0.1% formic acid in solvent B delivered at 0.300 mL/min. The flow was 15% from solvent A and 85% from solvent B for 4.5 min. A total of 7 μL of the sample was injected for the assay. […] Detection was performed through multiple reaction monitoring (MRM). The ion transitions are as follows: Imipramine, FNDR-10132, FNDR-10136, FNDR-10139, FNDR-10999, and IS at m/z 281.1→86.0, 355.2→115.1, 354.0→298.0, 350.0→186.1, 349→305.2, and m/z 237.0→194.0, respectively. An optimized cone voltage and collision energy were used to ionize the compounds. The MS parameters follow as follows: cone gas flow 50 (L/h); ion source temperature 150 °C; desolvation gas flow 900 (L/h); desolvation temperature 400 °C; and collision gas flow 0.10 (mL/min).

[5] = test system: Dd2 GNF156 (Pfcarl Ile1139Lys); assay: Cross-resistance panel, Dd2 GNF156; type: cell-based, Plasmodium falciparum
Experimental: as §1

[6] = test system: Dd2 390048 (Pfpi4k S743T); assay: Cross-resistance panel, Dd2 390048; type: cell-based, Plasmodium falciparum
Experimental: as §1

[7] = Plasmodium falciparum, 3D7, 72 h

SMILES: O=C(NCCN1CCCC1)c1cc(-c2ccc(CN3CCOCC3)cc2)nc2ccc(F)cc12 [DDD107498, reference compound]
IC50 ([1]; Plasmodium falciparum, DD2): 1860 nM
Fold shift IC50 rel. Dd2 ([1]; strain Dd2 DDD107498): 7247
IC50 (Dd2 (wt); Plasmodium falciparum): 0.257 nM
Fold shift IC50 rel. Dd2 (Dd2 (wt)): 1.0

SMILES: Cc1cc(Nc2ccc(S(F)(F)(F)(F)F)cc2)n2nc(C(C)(F)F)nc2n1 [DSM265, reference compound]
IC50 (Dd2 DSM265 (Pfdhodh); Plasmodium falciparum): 150 nM
Fold shift IC50 rel. Dd2 (Dd2 DSM265 (Pfdhodh); strain Dd2 DSM265): 24
IC50 (Dd2 (wt); Plasmodium falciparum): 6.23 nM
Fold shift IC50 rel. Dd2 (Dd2 (wt)): 1.0

SMILES: COc1cc2[nH]c(C)c(-c3ccc(Oc4ccc(OC(F)(F)F)cc4)cc3)c(=O)c2cc1Cl [ELQ300, reference compound]
Fold shift IC50 rel. Dd2 ([2]; strain Dd2 ELQ300): 9.7
IC50 ([2]; strain Dd2 ELQ300, PfcytB Ile22Leu, read-out: IC50): 59.7 nM
Fold shift IC50 rel. Dd2 (Dd2 (wt)): 1.0
IC50 (Dd2 (wt)): 6.14 nM

SMILES: O=C(O)c1ccc2oc(-c3ccc(N4CCOCC4)cc3)cc(=O)c2c1 [FNDR-10138]
IC50 [3, 7]: 9650 nM

SMILES: O=C(O)c1ccc2oc(-c3ccc(N4CCCCC4)cc3)cc(=O)c2c1 [FNDR-10139]
Microsomal Stability (Mouse) [4]: ~29.92 ± 5.46%
IC50 [3, 7]: 4060 nM

SMILES: CCCCCCCCCCCc1cc(=O)c2c(O)c(O)c(O)cc2o1 [FNDR-10142]
IC50 [3, 7]: 400 nM

SMILES: COc1cccc(CCC(=O)NCc2cc(=O)c3c(O)c(O)c(O)cc3o2)c1 [FNDR-10146]
IC50 [3, 7]: 2930 nM

SMILES: O=C(O)c1ccc2oc(-c3ccc(C4CCCCC4)cc3)cc(=O)c2c1 [FNDR-10999]
Microsomal Stability (Mouse) [4]: ~32.19 ± 0.29%
IC50 [3]: 10100 nM
IC50 [3, 7]: ~10000 nM

SMILES: CCCCOc1ccc(-c2cc(=O)c3cc(C(=O)O)ccc3o2)cc1 [FNDR-11000]
antimalarial activity (in words) [3]: none of the compounds were active
IC50 [3, 7]: > 25000 nM

SMILES: CCN(CC)c1ccc(-c2cc(=O)c3cc(C(=O)O)ccc3o2)cc1 [FNDR-11001]
IC50 [3]: 10200 nM
IC50 [3, 7]: ~10000 nM

SMILES: O=C(O)c1ccc2c(=O)cc(-c3ccc(N4CCCCC4)cc3)oc2c1 [FNDR-11003]
antimalarial activity (in words) [3]: inactive
IC50 [3, 7]: > 25000 nM

SMILES: CCCCCCc1ccc(-c2cc(=O)c3cc(C(=O)O)ccc3o2)cc1 [FNDR-11009]
IC50 [3, 7]: 10400 nM

SMILES: O=C(O)c1ccc2c(=O)cc(-c3ccc(C4CCCCC4)cc3)oc2c1 [FNDR-11012]
antimalarial activity (in words) [3]: inactive
IC50 [3, 7]: > 25000 nM

SMILES: CCCCOc1ccc(-c2cc(=O)c3ccc(C(=O)O)cc3o2)cc1 [FNDR-11013]
antimalarial activity (in words) [3]: inactive
IC50 [3, 7]: > 25000 nM

SMILES: CS(=O)(=O)CCCOc1ccc(-c2cc(=O)c3cc(C(=O)O)ccc3o2)cc1 [FNDR-11096]
antimalarial activity (in words) [3]: none of the compounds were active
IC50 [3, 7]: > 25000 nM

SMILES: CC1(C)c2nc(-c3ccc(F)cc3)c(Nc3ccc(F)cc3)n2CCN1C(=O)CN [GNF156, reference compound]
IC50 ([5]; Plasmodium falciparum, DD2): 2160 nM
Fold shift IC50 rel. Dd2 ([5]; strain Dd2 GNF156): 237
IC50 (Dd2 (wt); Plasmodium falciparum): 9.12 nM
Fold shift IC50 rel. Dd2 (Dd2 (wt)): 1.0

SMILES: CS(=O)(=O)c1ccc(-c2cnc(N)c(-c3ccc(C(F)(F)F)nc3)c2)cc1 [MMV390048, reference compound]
IC50 (Dd2 (wt); Plasmodium falciparum): 18.5 nM
Fold shift IC50 rel. Dd2 (Dd2 (wt)): 1.0
IC50 ([6]; Plasmodium falciparum, DD2): 90.8 nM
Fold shift IC50 rel. Dd2 ([6]; strain Dd2 390048): 4.9

Further lines, with some results ahead:

IC50 [3, 7]: > 25000 nM
SMILES: O=C(O)c1ccc2oc(-c3ccccc3)cc(=O)c2c1 [FNDR-10130]
antimalarial activity (in words) [3]: no activity

IC50 [3, 7]: 220 nM
SMILES: O=c1cc(-c2ccc(-c3ccccc3)cc2)oc2cc(O)c(O)c(O)c12 [FNDR-10131]

IC50 [3, 7]: 1290 nM
SMILES: O=c1cc(-c2ccc(N3CCOCC3)cc2)oc2cc(O)c(O)c(O)c12 [FNDR-10133]

Microsomal Stability (Mouse) [4]: ~19.05 ± 1.26%
IC50 [3, 7]: 100 nM
SMILES: O=c1cc(-c2ccc(N3CCCCC3)cc2)oc2cc(O)c(O)c(O)c12 [FNDR-10136]

IC50 [3, 7]: 13200 nM
SMILES: O=C(O)c1ccc2oc(-c3ccc(-c4ccccc4)cc3)cc(=O)c2c1 [FNDR-10137]

IC50 [3, 7]: 2480 nM
SMILES: O=C(CCCc1ccccc1)NCc1cc(=O)c2c(O)c(O)c(O)cc2o1 [FNDR-10143]

IC50 [3]: 920 nM
IC50 [3, 7]: 900 nM
SMILES: CCCCOc1ccc(C(=O)NCc2cc(=O)c3c(O)c(O)c(O)cc3o2)cc1 [FNDR-10148]

IC50 [3, 7]: 2740 nM
SMILES: O=C(CCCCCc1ccccc1)NCc1cc(=O)c2c(O)c(O)c(O)cc2o1 [FNDR-10149]

IC50 [3, 7]: 1120 nM
SMILES: O=C(NCc1cc(=O)c2c(O)c(O)c(O)cc2o1)c1ccc2ccc(Br)cc2c1 [FNDR-10150]

IC50 [3, 7]: > 25000 nM
SMILES: CCN(CC)c1ccc(-c2cc(=O)c3ccc(C(=O)O)cc3o2)cc1 [FNDR-11014]
antimalarial activity (in words) [3]: inactive

IC50 [3, 7]: 32000 nM
SMILES: O=c1cc(-c2ccccc2)oc2cc(O)c(O)c(O)c12 [baicalein]
